Here are results for eight compounds from patent US20210309652A1, “ISOXAZOLINE COMPOUNDS FOR CONTROLLING INVERTEBRATE PESTS” (priority 2018, published 2021).

Assay type in all cases: in vivo
Experiment [1] deals with green peach aphid (Myzus persicae (Sulzer)). As to the kind of experiment: Test D: control of green peach aphid on radish plant, contact and/or systemic. The following applies: 144 h. As to the method:
(§1) Test Compounds were formulated using a solution containing 10% acetone, 90% water and 300 ppm Activator 90® non-ionic surfactant (Loveland Products, Loveland, Colo., USA). The formulated Compounds were applied in 1 mL of liquid through an atomizer nozzle positioned 1.27 cm (0.5 inches) above the top of each test unit. Test Compounds were sprayed at the rates indicated, and each test was replicated three times.
For evaluating control of green peach aphid (Myzus persicae (Sulzer)) through contact and/or systemic means, the test unit consisted of a small open container with a 12-15-day-old radish plant inside. This was pre-infested by placing on a leaf of the test plant 30-40 aphids on a piece of leaf excised from a culture plant (cut-leaf method). The aphids moved onto the test plant as the leaf piece desiccated. After pre-infestation, the soil of the test unit was covered with a layer of sand.
Test Compounds were formulated and sprayed at 250 and 50 ppm. After spraying of the formulated test Compound, each test unit was allowed to dry for 1 hour and then a black, screened cap was placed on top. The test units were held for 6 days in a growth chamber at 19-21° C. and 50-70% relative humidity. Each test unit was then visually assessed for insect mortality.

Experiment [2] concerns potato leafhopper (Empoasca fabae (Harris)). The experiment in a line: Test C: control of potato leafhopper on Soleil bean plant, contact and/or systemic. The following applies: 144 h. As to the method:
as §1
For evaluating control of potato leafhopper (Empoasca fabae (Harris)) through contact and/or systemic means, the test unit consisted of a small open container with a 5-6-day-old Soleil bean plant (primary leaves emerged) inside. White sand was added to the top of the soil, and one of the primary leaves was excised prior to application of the test Compound.
Test Compounds were formulated and sprayed at 250, 50 and 10 ppm. After spraying of the formulated test Compound, the test units were allowed to dry for 1 hour before they were post-infested with 5 potato leafhoppers (18-to-21-day-old adults). A black, screened cap was placed on the top of the test unit, and the test units were held for 6 days in a growth chamber at 20° C. and 70% relative humidity. Each test unit was then visually assessed for insect mortality.

Experiment [3] relates to cotton melon aphid (Aphis gossypii (Glover)). The experiment in a line: Test E: control of cotton melon aphid on okra plant, contact and/or systemic. The following applies: 144 h. As to the method:
as §1
For evaluating control of cotton melon aphid (Aphis gossypii (Glover)) through contact and/or systemic means, the test unit consisted of a small open container with a 5-day-old okra plant inside. This was pre-infested with 30-40 insects on a piece of leaf according to the cut-leaf method, and the soil of the test unit was covered with a layer of sand.
Test Compounds were formulated and sprayed at 250, 50 and 10 ppm. After spraying, the test units were maintained in a growth chamber for 6 days at 19° C. and 70% relative humidity. Each test unit was then visually assessed for insect mortality.

For experiment [4], the system named is beet army worm [Spodoptera exigua (Hübner)]. As to the kind of experiment: Test H: control of beet armyworm on treated soybean leaf pieces. The following applies: 96 h. As to the method: (§2) For evaluating control of beet army worm [Spodoptera exigua (Hübner)], corn earworm [Helicoverpa zea (Boddie)], and cabbage looper [Trichoplusia ni (Hübner)], the test unit consisted of 4-inch diameter pots with 3-4 week old soybean (for S. exigua) or cotton (for H. zea and T. ni) plants inside. Plants were treated with test Compound sprayed to runoff using a hand-held spray nozzle. Test Compounds were formulated and sprayed at 5 rates. Treated plants dried for 1 hour. Leaves of treated plants were cut into pieces (approximately 4×3 cm), and pieces were placed in cells of plastic trays that each contained agar to maintain humidity. Each cell was infested with a single second-instar larva which represented a separate replicate. Each rate was represented by 16-24 larvae. Cells were sealed with lids. Trays were held for 4 days in a growth chamber with a 16:8-hour (Light:Dark) cycle at 25° C. and 70% relative humidity.
(§3) Treatments were evaluated by counting the number of live and dead larvae and by visually estimating the percentage of feeding on plant material using a 0-10 rating scale, corresponding to 10% increases from 0-100% feeding.

Experiment [5] relates to corn earworm [Helicoverpa zea (Boddie)]. The experiment in a line: Test H: control of corn earworm on treated cotton leaf pieces. The note with it: 96 h. As to the method:
as §2, §3

The subject of experiment [6] is Western Flower Thrips (Frankliniella occidentalis (Pergande)). As to the kind of experiment: Test G: control of Western Flower Thrips on Soleil bean plant, contact and/or systemic. The following applies: sprayed at 10 ppm; 6 days. As to the method: as §1
For evaluating control of the Western Flower Thrips (Frankliniella occidentalis (Pergande)) through contact and/or systemic means, the test unit consisted of a small open container with a 5-7-day-old Soleil bean plant inside.
Test Compounds were formulated and sprayed at 250, 50, 10 and 2 ppm. After spraying, the test units were allowed to dry for 1 hour, and then ˜60 thrips (adults and nymphs) were added to each unit. A black, screened cap was placed on top, and the test units were held for 6 days at 25° C. and 45-55% relative humidity. Each test unit was then visually assessed for plant damage and insect mortality.

For experiment [7], the system named is cabbage looper [Trichoplusia ni (Hübner)]. As to the kind of experiment: Test H: control of cabbage looper on treated cotton leaf pieces. The note with it: 96 h. The method, then:
as §2, §3

Consider `O=C(NCc1ncccn1)c1ccc(C2=NOC(c3cc(Cl)c(F)c(Cl)c3)(C(F)(F)F)C2)c2ccsc12` (centres unmarked) [Compound 20, 4-[5-(3,5-dichloro-4-fluorophenyl)-4,5-dihydro-5-(trifluoromethyl)-3-isoxazolyl]-N-(2-pyrimidinylmethyl)benzo[b]thiophene-7-carboxamide], for which the mortality at 50 ppm in experiment [1], in experiment [2] and in experiment [3] was at least 80% throughout. The mortality at 10 ppm in experiment [2] was at least 80%.

For `O=C(NC1CS(=O)(=O)C1)c1ccc(C2=NOC(c3cc(Cl)c(F)c(Cl)c3)(C(F)(F)F)C2)c2ccoc12` (centres unmarked) [Compound 56, 4-[5-(3,5-dichloro-4-fluorophenyl)-4,5-dihydro-5-(trifluoromethyl)-3-isoxazolyl]-N-(1,1-dioxido-3-thietanyl)-7-benzofurancarboxamide], the mortality at 1 ppm in experiment [4] and in experiment [5] was at least 80% in each case. Also, the mortality at 10 ppm in experiment [4], in experiment [5] and in experiment [2] was at least 80% in each case.

`CSCCNC(=O)c1ccc(C2=NOC(c3cc(Cl)c(F)c(Cl)c3)(C(F)(F)F)C2)c2ccoc12` (centres unmarked) [Compound 1]: the “control efficacy: plant damage (30% or less plant damage and/or 100% mortality)” value in experiment [6] is given as at most 30%.

Consider `O=C(NC1CSC1)c1ccc(C2=NOC(c3cc(Cl)c(F)c(Cl)c3)(C(F)(F)F)C2)c2ccoc12` (centres unmarked) [Compound 55, 4-(5-(3,5-dichloro-4-fluorophenyl)-5-(trifluoromethyl)-4,5-dihydroisoxazol-3-yl)-N-(thietan-3-yl)benzofuran-7-carboxamide], for which the mortality at 10 ppm in experiment [1], in experiment [2] and in experiment [3] was at least 80% each time.

With `CC(=O)NCc1ccc(C2=NOC(c3cc(Cl)c(F)c(Cl)c3)(C(F)(F)F)C2)c2ccoc12` (centres unmarked) [Compound 83, N-[[4-[5-(3,5-dichloro-4-fluorophenyl)-4,5-dihydro-5-(trifluoromethyl)-3-isoxazolyl]-7-benzofuranyl]methyl]acetamide], the mortality at 10 ppm in experiment [1], in experiment [2] and in experiment [3] was at least 80% throughout. The mortality at 1 ppm in experiment [4] and in experiment [5] was at least 80% throughout.

As to `CC(=O)NCc1ccc(C2=NOC(c3cc(Cl)cc(Cl)c3)(C(F)(F)F)C2)c2ccoc12` (centres unmarked) [Compound 79, N-[[4-[5-(3,5-dichlorophenyl)-5-(trifluoromethyl)-4H-1,2-oxazol-3-yl]-1-benzofuran-7-yl]methyl]acetamide], in experiment [5], the mortality at 1 ppm is at least 80%. In addition, the mortality at 10 ppm in experiment [2] and in experiment [3] was at least 80% each time.

For `C[C@H](NC(=O)c1ccc(C2=NOC(c3cc(Cl)cc(Cl)c3)(C(F)(F)F)C2)c2sccc12)C(N)=O` (stereo partly drawn) [Compound 101, N-[(1S)-2-amino-1-methyl-2-oxo-ethyl]-7-[5-(3,5-dichlorophenyl)-5-(trifluoromethyl)-4H-isoxazol-3-yl]benzothiophene-4-carboxamide], the mortality at 1 ppm in experiment [7], in experiment [4] and in experiment [5] was at least 80% in each case. The mortality at 10 ppm in experiment [7], in experiment [4], in experiment [5] and in experiment [2] was at least 80% throughout.

Regarding `O=C(NC1C[S+]([O-])C1)c1ccc(C2=NOC(c3cc(Cl)c(F)c(Cl)c3)(C(F)(F)F)C2)c2ccoc12` (single isomer, unassigned) [Compound 57, 4-(5-(3,5-dichloro-4-fluorophenyl)-5-(trifluoromethyl)-4,5-dihydroisoxazol-3-yl)-N-(1-oxidothietan-3-yl)benzofuran-7-carboxamide], the mortality at 10 ppm in experiment [1], in experiment [4], in experiment [5], in experiment [2] and in experiment [3] was at least 80% throughout. For the same compound, the mortality at 1 ppm in experiment [4] and in experiment [5] was at least 80% in each case.
